Reference: ChEMBL document CHEMBL6127018, “Molecular design and evaluation of aza-polycyclic carbamoyl pyridones as HIV-1 integrase strand transfer inhibitors” (Bioorg Med Chem Lett, 2024)
pEC50, pIC50: −log10 of the molar value.

Legend:
[1] = Cytotoxicity against human MT4 cells; type: toxicity, cell-based
[2] = Selectivity ratio of PAEC50 for antiviral activity against HIV-1 infected in human MT4 cells in presence of human serum albumin to EC50 for antiviral activity against HIV-1 infected in human MT4 cells; type: functional, Human immunodeficiency virus 1
[3] = target: Human immunodeficiency virus type 1 integrase (Human immunodeficiency virus 1, UniProt Q7ZJM1); experiment: Inhibition of recombinant HIV-1 integrase by microtiter plate integration assay
Human immunodeficiency virus type 1 integrase, sequence (Q7ZJM1 whole entry): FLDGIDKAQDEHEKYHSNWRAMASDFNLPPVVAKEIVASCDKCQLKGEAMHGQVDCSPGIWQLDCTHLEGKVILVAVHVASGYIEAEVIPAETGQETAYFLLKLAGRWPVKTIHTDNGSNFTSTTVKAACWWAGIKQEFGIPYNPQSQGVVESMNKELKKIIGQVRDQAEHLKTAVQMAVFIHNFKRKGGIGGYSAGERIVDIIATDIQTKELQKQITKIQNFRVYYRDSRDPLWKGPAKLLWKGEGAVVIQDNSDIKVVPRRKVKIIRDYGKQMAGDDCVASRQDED

[4] = tested on: Human immunodeficiency virus 1; experiment: Antiviral activity against HIV-1 infected in human MT4 cells; type: functional, organism-based; settings: Human immunodeficiency virus 1, MT4
[5] = tested on: Human immunodeficiency virus 1; experiment: Antiviral activity against HIV-1 harboring raltegravir resistant Q148H mutant infected in human HeLa-CD4 cells assessed as fold change; type: functional
[6] = Half-life in rat at 1 mg/kg, iv; type: ADME, organism-based; settings: in vivo
[7] = Cmax in rat at 5 mg/kg, po or 1 mg/kg, iv; type: ADME, organism-based; settings: in vivo
[8] = Cmax in cynomolgus monkey at 5 mg/kg, po or 1 mg/kg, iv; type: ADME, organism-based, Macaca fascicularis; settings: in vivo
[9] = Half-life in cynomolgus monkey at 1 mg/kg, iv; type: ADME, organism-based, Macaca fascicularis; settings: in vivo
[10] = Oral bioavailability in cynomolgus monkey at 5 mg/kg; type: ADME, organism-based, Macaca fascicularis; settings: in vivo
[11] = Free fraction in cynomolgus monkey serum at 5 mg/kg, po or 1 mg/kg, iv; type: ADME, organism-based, Macaca fascicularis
[12] = Free fraction in rat serum at 5 mg/kg, po or 1 mg/kg, iv; type: ADME, organism-based
[13] = Oral bioavailability in rat at 5 mg/kg; type: ADME, organism-based; settings: in vivo

Compound	CC50 [1]	Selectivity ratio [2]	pIC50 [3]	pEC50 [4]	fold change (FC) [5]	half-life [6]	Cmax [7]	Cmax [8]	half-life [9]	bioavailability [10]	fraction unbound [11]	fraction unbound [12]	bioavailability [13]
COCCN1CN(Cc2ccccc2)n2cc(C(=O)NCc3ccc(F)cc3F)c(=O)c(O)c2C1=O	5000 nM	17	8.46	8.72	1.1								
COCCCN1CN(C)n2cc(C(=O)NCc3ccc(F)cc3F)c(=O)c(O)c2C1=O	18000 nM	11	8.25	8.89	0.93								
CN1CN(CC2CC2)C(=O)c2c(O)c(=O)c(C(=O)NCc3ccc(F)cc3F)cn21	13000 nM	360	8.40	8.89	0.85								
CC(C)N1CN(C)n2cc(C(=O)NCc3ccc(F)cc3F)c(=O)c(O)c2C1=O	3900 nM	230	8.28	8.89	0.64								
CN1CN(Cc2ccco2)C(=O)c2c(O)c(=O)c(C(=O)NCc3ccc(F)cc3F)cn21	> 50000 nM	89	8.24	8.82	0.77								
O=C(NCc1ccc(F)cc1F)c1cn2c(c(O)c1=O)C(=O)N1CCCCCN1C2	17000 nM	400	8.21	8.46									
CN1Cn2cc(C(=O)NCc3ccc(F)cc3F)c(=O)c(O)c2C(=O)N1CCO	> 50000 nM	18	8.31	7.82									
CN1NCn2cc(C(=O)NCc3ccc(F)cc3F)c(=O)c(O)c2C1=O	34000 nM	12	8.32	8.41									
CN1CN(C[C@H]2CCCO2)C(=O)c2c(O)c(=O)c(C(=O)NCc3ccc(F)cc3F)cn21	9800 nM	23	8.38	8.85	1.5								
COCCN1C(=O)c2c(O)c(=O)c(C(=O)NCc3ccc(F)cc3F)cn2CN1C	18000 nM	24	8.35	8.85	1.7								
CN1Cn2cc(C(=O)NCc3ccc(F)cc3F)c(=O)c(O)c2C(=O)N1	> 50000 nM	8.4	8.35	7.54									
CN1C(=O)c2c(O)c(=O)c(C(=O)NCc3ccc(F)cc3F)cn2CN1CCO	> 50000 nM	3.1	8.33	7.70									
COCCN1Cn2cc(C(=O)NCc3ccc(F)cc3F)c(=O)c(O)c2C(=O)N1C	15000 nM	14	8.36	8.80	2.3								
O=C(NCc1ccc(F)cc1F)c1cn2c(c([O-])c1=O)C(=O)N1CCCN1C2.[Na+]						27.5 h	6390 ng/mL	345 ng/mL	3.7 h	6.4%	0.0052	0.0002	13%
CC(=O)NCCN1Cn2cc(C(=O)NCc3ccc(F)cc3F)c(=O)c(O)c2C(=O)N1C	> 50000 nM	2.8	8.05	6.92									
COCCN1C(=O)c2c([O-])c(=O)c(C(=O)NCc3ccc(F)cc3F)cn2CN1C.[Na+]						21.9 h	9330 ng/mL	385 ng/mL	3.1 h	6.1%	0.0118	0.0014	21%
O=C(NCc1ccc(F)cc1F)c1cn2c(c(O)c1=O)C(=O)N1CCCN1C2	> 50000 nM	12	8.47	8.66									
CN1CN(Cc2ccc(F)cc2)C(=O)c2c(O)c(=O)c(C(=O)NCc3ccc(F)cc3F)cn21	> 50000 nM	25	8.35	8.77	0.51								
O=C(NCc1ccc(F)cc1)c1cn2c(c(O)c1=O)C(=O)N1CCCCN1C2	23000 nM	215	8.35	8.74									
CCN1CN(CCOC)C(=O)c2c(O)c(=O)c(C(=O)NCc3ccc(F)cc3F)cn21	8500 nM	110	8.31	8.89	0.73								

Compound	CC50 [1]	Selectivity ratio [2]	pIC50 [3]	pEC50 [4]	fold change (FC) [5]	half-life [6]	Cmax [7]	Cmax [8]	half-life [9]	bioavailability [10]	fraction unbound [11]	fraction unbound [12]	bioavailability [13]
COCCN1CN(C(c2ccccc2)c2ccccc2)n2cc(C(=O)NCc3ccc(F)cc3F)c(=O)c(O)c2C1=O				4.24									
O=C(NCc1ccc(F)cc1)c1cn2c(c(O)c1=O)C(=O)N1CCCN1C2	41000 nM	9.1	8.28	8.44									
CN(C)CCN1CN(C)n2cc(C(=O)NCc3ccc(F)cc3F)c(=O)c(O)c2C1=O	12000 nM	2.2	7.96	8.32	5								
COCCN1CN(C)n2cc(C(=O)NCc3ccc(F)cc3F)c(=O)c(O)c2C1=O	13000 nM	18	8.32	9.08	0.81								
COCCN1CN(C)n2cc(C(=O)NCc3ccc(F)cc3F)c(=O)c([O-])c2C1=O.[Na+]						14.3 h	18000 ng/mL	1700 ng/mL	4.8 h	31%	0.0072	0.0011	46%
COCCN1CN(CCO)n2cc(C(=O)NCc3ccc(F)cc3F)c(=O)c(O)c2C1=O	28000 nM	13	8.27	8.03	0.7								
COCCN1CN(CC(=O)N(C)C)n2cc(C(=O)NCc3ccc(F)cc3F)c(=O)c(O)c2C1=O	38000 nM	5	8.29	7.82	0.9								
CCN1Cn2cc(C(=O)NCc3ccc(F)cc3F)c(=O)c(O)c2C(=O)N1	> 50000 nM	44	8.35	7.96									
CN1CN(Cc2cccs2)C(=O)c2c(O)c(=O)c(C(=O)NCc3ccc(F)cc3F)cn21	> 50000 nM	96	8.35	8.77	0.72								
CCN(CC)CCN1CN(CCOC)C(=O)c2c(O)c(=O)c(C(=O)NCc3ccc(F)cc3F)cn21	11000 nM	1.4	7.66	7.89	2.3								
COCCN1CN(Cc2cccnc2)n2cc(C(=O)NCc3ccc(F)cc3F)c(=O)c(O)c2C1=O	8100 nM	3.3	8.16	8.49	1.4								
COCCN1CN(Cc2ccccn2)n2cc(C(=O)NCc3ccc(F)cc3F)c(=O)c(O)c2C1=O	7000 nM	4.7	8.04	8.62	1.2								
CC(C)N1NCn2cc(C(=O)NCc3ccc(F)cc3F)c(=O)c(O)c2C1=O	15000 nM	34	8.37	8.77									
CN1CN(C[C@@H]2CCCO2)C(=O)c2c(O)c(=O)c(C(=O)NCc3ccc(F)cc3F)cn21	14000 nM	13	8.33	8.89	1								
COCCN1CN(CC(C)C)n2cc(C(=O)NCc3ccc(F)cc3F)c(=O)c(O)c2C1=O	13000 nM	620	8.21	8.46	0.6								
CN1Cn2cc(C(=O)NCc3ccc(F)cc3F)c(=O)c([O-])c2C(=O)N1C.[Na+]	> 50000 nM	52	8.43	8.62									
CN1CN(C2CC2)C(=O)c2c(O)c(=O)c(C(=O)NCc3ccc(F)cc3F)cn21	12000 nM	1000	8.33	8.70	1.5								
O=C(NCc1ccc(F)cc1F)c1cn2c(c(O)c1=O)C(=O)N1CCOCCN1C2	32000 nM	20	8.06	8.34									
C[C@@H]1CCO[C@H]2Cn3cc(C(=O)NCc4ccc(F)cc4F)c(=O)c([O-])c3C(=O)N12.[Na+] [DOLUTEGRAVIR SODIUM]						6.2 h	10700 ng/mL	817 ng/mL	6 h		0.0058	0.0008	33%
C[C@@H]1CCO[C@H]2Cn3cc(C(=O)NCc4ccc(F)cc4F)c(=O)c(O)c3C(=O)N12 [DOLUTEGRAVIR]	15000 nM			8.68	0.74								
